Assay results published in patent US10246456B2, “IRAK4 inhibiting agents” (BIOGEN MA INC., priority 2014, dated 2019).

Target: IRAK4 (Homo sapiens (Human), UniProt Q9NWZ3)
Assay: IRAK-4 AlphaScreen biochemical kinase assay
Details: 1 nM IRAK4, 1 mM ATP, 3.5 h at RT
Summary of the method: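 AlphaScreen read-out: streptavidin beads bind the biotinylated peptide and protein A beads bind the anti-phosphothreonine antibody, so energy transfer reports phosphorylation of the peptide. The kinase is human IRAK-4.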

Chain of IRAK4 (Q9NWZ3 whole entry, species assumed): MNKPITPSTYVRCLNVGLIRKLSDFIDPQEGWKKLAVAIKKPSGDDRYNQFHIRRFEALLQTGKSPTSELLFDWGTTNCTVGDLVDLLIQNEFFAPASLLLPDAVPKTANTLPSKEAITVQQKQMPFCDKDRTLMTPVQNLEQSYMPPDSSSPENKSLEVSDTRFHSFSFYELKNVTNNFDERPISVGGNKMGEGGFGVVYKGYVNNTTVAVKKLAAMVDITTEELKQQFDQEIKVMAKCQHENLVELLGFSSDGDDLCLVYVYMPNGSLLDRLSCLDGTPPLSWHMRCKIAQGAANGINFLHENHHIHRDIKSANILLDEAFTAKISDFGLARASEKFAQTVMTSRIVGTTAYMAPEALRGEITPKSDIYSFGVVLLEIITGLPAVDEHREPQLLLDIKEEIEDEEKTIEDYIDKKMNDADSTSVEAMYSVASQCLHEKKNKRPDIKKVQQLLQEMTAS

For `COCCOc1cc(-c2cccc([C@@H](N)CCCO)n2)cc2c1cnn2-c1cccc(CO)n1` [Example 484, (S)-4-amino-4-(6-(1-(6-(hydroxymethyl)pyridin-2-yl)-4-(2-methoxyethoxy)-1H-indazol-6-yl)pyridin-2-yl)butan-1-ol], which IC50 is on record?
The IC50 was under 100 nM.

`Nc1cccc(-c2ccc3cnn(-c4cccc(C(F)(F)F)n4)c3c2)c1` [Example 25, 3-(1-(6-(trifluoromethyl)pyridin-2-yl)-1H-indazol-6-yl)aniline] was tested. Which IC50 did it give?
The IC50 was under 100 nM.

Which IC50 does the source give for `CNC(=O)c1cc(-c2cccc(C(C)N)n2)cc2c1cnn2-c1cccc(C)n1` (stereo not drawn) [Example 115, 6-(6-(1-aminoethyl)pyridin-2-yl)-N-methyl-1-(6-methylpyridin-2-yl)-1H-indazole-4-carboxamide] here?
Its IC50 is under 100 nM.

Which IC50 does the source give for `COC(=O)c1cc(-c2cncc(N)c2)cc2c1cnn2-c1cccc(C#N)n1` [Example 49, methyl 6-(5-aminopyridin-3-yl)-1-(6-cyanopyridin-2-yl)-1H-indazole-4-carboxylate] here?
Its IC50 is under 100 nM.

`Cc1cccc(-n2ncc3ccc(-c4cc(N)cnc4O)cc32)n1` [Example 11, 5-amino-3-(1-(6-methylpyridin-2-yl)-1H-indazol-6-yl)pyridin-2-ol] was tested. Which IC50 did it give?
The IC50 was 1000 to 10000 nM.

`CCC[C@H](N)c1cccc(-c2ccc3cnn(-c4ccnc(CO)n4)c3c2)n1` [Example 401, (S)-(4-(6-(6-(1-aminobutyl)pyridin-2-yl)-1H-indazol-1-yl)pyrimidin-2-yl)methanol] was tested. Which IC50 did it give?
The IC50 was under 100 nM.

`Cc1cccc(-n2ncc3ccc(-c4cccc(C(C)N)n4)cc32)n1` (stereo not drawn) [Example 55, 1-(6-(1-(6-methylpyridin-2-yl)-1H-indazol-6-yl)pyridin-2-yl)ethanamine] was tested. Which IC50 did it give?
The IC50 was under 100 nM.

For `CCC[C@@H](N)c1nccc(-c2ccc3cnn(-c4cccc(CO)n4)c3c2)n1` [Example 406, (R)-(6-(6-(2-(1-aminobutyl)pyrimidin-4-yl)-1H-indazol-1-yl)pyridin-2-yl)methanol], which IC50 is on record?
Its IC50 is under 100 nM.

For `C[S+]([O-])CC(N)c1cccc(-c2ccc3cnn(-c4cccc(CO)n4)c3c2)n1` (stereo not drawn) [Example 568, (6-(6-(6-(1-amino-2-(methylsulfinyl)ethyl)pyridin-2-yl)-1H-indazol-1-yl)pyridin-2-yl)methanol], which IC50 is on record?
Its IC50 is 1000 to 10000 nM.

`Cc1csc(-n2ncc3ccc(-c4cccc(C(C)N)n4)cc32)c1` (stereo not drawn) [Example 282, 1-(6-(1-(4-methylthiophen-2-yl)-1H-indazol-6-yl)pyridin-2-yl)ethanamine] was tested. Which IC50 did it give?
Its IC50 is 1000 to 10000 nM.

For `C[C@H](N)c1cccc(-c2cc(-c3ncc(F)cn3)c3cnn(-c4cccc(CO)n4)c3c2)n1` [Example 385, (S)-(6-(6-(6-(1-aminoethyl)pyridin-2-yl)-4-(5-fluoropyrimidin-2-yl)-1H-indazol-1-yl)pyridin-2-yl)methanol], which IC50 is on record?
The IC50 was under 100 nM.

`C[C@@H](N)c1cccc(-c2ccc3cnn(-c4cccc(CO)n4)c3c2)n1` [Example 144, (R)-(6-(6-(6-(1-aminoethyl)pyridin-2-yl)-1H-indazol-1-yl)pyridin-2-yl)methanol] was tested. Which IC50 did it give?
The IC50 was under 100 nM.

For `Cc1cncc(-n2ncc3ccc(-c4cccc(C(C)N)n4)cc32)n1` (stereo not drawn) [Example 559, 1-(6-(1-(6-methylpyrazin-2-yl)-1H-indazol-6-yl)pyridin-2-yl)ethanamine], which IC50 is on record?
Its IC50 is 100 to 1000 nM.

Which IC50 does the source give for `C[C@H](N)c1cccc(-c2cc(-c3cnccn3)c3cnn(-c4cccc(CO)n4)c3c2)n1` [Example 388, (S)-(6-(6-(6-(1-aminoethyl)pyridin-2-yl)-4-(pyrazin-2-yl)-1H-indazol-1-yl)pyridin-2-yl)methanol] here?
Its IC50 is under 100 nM.

With `Nc1cncc(-c2ccc3cnn(-c4cccc(C5CCCC5)n4)c3c2)c1` [Example 205, 5-(1-(6-cyclopentylpyridin-2-yl)-1H-indazol-6-yl)pyridin-3-amine] as the compound, how does the IC50 read?
The IC50 was over 10000 nM.

How did the IC50 turn out when `CC(N)c1cccc(-c2ccc3cnn(-c4cccc(C(F)(F)F)n4)c3c2)n1` (single isomer, unassigned; isomer b) [Example 84, 1-(6-(1-(6-(trifluoromethyl)pyridin-2-yl)-1H-indazol-6-yl)pyridin-2-yl)ethanamine-isomer B] was run?
The IC50 was under 100 nM.

For `Cc1cccc(-n2ncc3ccc(-c4cn(C)c(CN)n4)cc32)n1` [Example 300, (1-methyl-4-(1-(6-methylpyridin-2-yl)-1H-indazol-6-yl)-1H-imidazol-2-yl)methanamine], which IC50 is on record?
The IC50 was 1000 to 10000 nM.

With `CCCC(N)c1cccc(-c2ccc3cnn(-c4cccc(C(N)=O)n4)c3c2)n1` (stereo not drawn) [Example 274, 6-(6-(6-(1-aminobutyl)pyridin-2-yl)-1H-indazol-1-yl)picolinamide] as the compound, how does the IC50 read?
The IC50 was under 100 nM.

Which IC50 does the source give for `Cc1cccc(-n2ncc3ccc(-c4cccc5c4CCNC5=O)cc32)n1` [Example 206, 5-(1-(6-methylpyridin-2-yl)-1H-indazol-6-yl)-3,4-dihydroisoquinolin-1(2H)-one] here?
Its IC50 is over 10000 nM.

With `CC(N)c1cccc(-c2ccc3cnn(-c4cccc(CN)n4)c3c2)n1` (stereo not drawn) [Example 287, 1-(6-(1-(6-(aminomethyl)pyridin-2-yl)-1H-indazol-6-yl)pyridin-2-yl)ethanamine] as the compound, how does the IC50 read?
The IC50 was 100 to 1000 nM.

How did the IC50 turn out when `N#CCCNC(=O)c1cccc(-n2ncc3ccc(-c4cncc(N)c4)cc32)n1` [Example 70, 6-(6-(5-aminopyridin-3-yl)-1H-indazol-1-yl)-N-(2-cyanoethyl)picolinamide] was run?
The IC50 was 1000 to 10000 nM.

`Cc1cccc(-n2ncc3ccc(-c4cn(C)cn4)cc32)n1` [Example 323, 6-(1-methyl-1H-imidazol-4-yl)-1-(6-methylpyridin-2-yl)-1H-indazole] was tested. Which IC50 did it give?
The IC50 was 100 to 1000 nM.

Which IC50 does the source give for `Cc1cccc(-n2ncc3ccc(-c4nccc(N)n4)cc32)n1` [Example 2, 2-(1-(6-methylpyridin-2-yl)-1H-indazol-6-yl)pyrimidin-4-amine] here?
The IC50 was 1000 to 10000 nM.

For `COCCOc1cc(-c2cccc([C@@H](N)C3CC3)n2)cc2c1cnn2-c1cccc(CO)n1` [Example 588, (S)-(6-(6-(6-(amino(cyclopropyl)methyl)pyridin-2-yl)-4-(2-methoxyethoxy)-1H-indazol-1-yl)pyridin-2-yl)methanol], which IC50 is on record?
Its IC50 is under 100 nM.

For `CCC[C@@H](N)c1cccc(-c2ccc3cnn(-c4cccc(C)n4)c3c2)n1` [Example 264, (R)-1-(6-(1-(6-methylpyridin-2-yl)-1H-indazol-6-yl)pyridin-2-yl)butan-1-amine], which IC50 is on record?
Its IC50 is under 100 nM.

With `NC(c1cccc(-c2ccc3cnn(-c4cccc(C(F)(F)F)n4)c3c2)n1)C1CC1` (stereo not drawn) [Example 128, cyclopropyl(6-(1-(6-(trifluoromethyl)pyridin-2-yl)-1H-indazol-6-yl)pyridin-2-yl)methanamine] as the compound, how does the IC50 read?
The IC50 was under 100 nM.

`Cc1cccc(-n2ncc3ccc(-c4ncc(CN)s4)cc32)n1` [Example 140, (2-(1-(6-methylpyridin-2-yl)-1H-indazol-6-yl)thiazol-5-yl)methanamine] was tested. Which IC50 did it give?
The IC50 was 100 to 1000 nM.

`Nc1cncc(-c2ccc3cnn(-c4cccc(C(=O)N5CC(O)C5)n4)c3c2)c1` [Example 68, (6-(6-(5-aminopyridin-3-yl)-1H-indazol-1-yl)pyridin-2-yl)(3-hydroxyazetidin-1-yl)methanone] was tested. Which IC50 did it give?
Its IC50 is 100 to 1000 nM.

With `Cc1cccc(-n2ncc3c(C(C)C)cc(-c4cccc(C(C)N)n4)cc32)n1` (stereo not drawn) [Example 110, 1-(6-(4-isopropyl-1-(6-methylpyridin-2-yl)-1H-indazol-6-yl)pyridin-2-yl)ethanamine] as the compound, how does the IC50 read?
Its IC50 is 100 to 1000 nM.

Which IC50 does the source give for `C[C@H](N)c1cccc(-c2ccc3cnn(-c4cccc(C(=O)O)n4)c3c2)n1` [Example 472, 6-{6-[6-((S)-1-Amino-ethyl)-pyridin-2-yl]-indazol-1-yl}-pyridine-2-carboxylic acid] here?
The IC50 was 1000 to 10000 nM.
